Read-outs that look alike come from different tables or passages of the source.

Data on two compounds can be found in patent publication US6610681B1, “Neurotherapeutic clavulanate composition and method” (Revaax Pharmaceuticals, LLC, priority 1999, dated 2003).

The test system of one data set is male Wistar rats. The experiment in a line: elevated plus-maze. The class given is in vivo, rat. The text has this: The elevated plus-maze was developed for screening anxiolytic and anxiogenic drug effects in the rat (Pellow et al., 1985). The method has been validated behaviorally, physiologically, and pharmacologically. The plus-maze consists of two open arms and two enclosed arms. […] Conversely, anxiogenic compounds like yohimbin or amphetamines reduce open arm entries and time spent in the open arms.
Male Wistar rats weighing 250-300 g were group housed in a normal 12:12 light-dark cycle with light on at 0800 hr and provided food and water ad libitum. The plus-maze consisted of two open arms, 50 cm long, 10 cm wide, […]. The two closed arms had the same dimensions but included a roof. The Plexiglas for the closed arms was painted black. Each pair of arms was arranged opposite to each other to form the plus-maze. The maze was elevated to a height of 50 cm. Eighteen animals were tested in the plus-maze 90 min following the IP injection of 1.0 μg/kg CLAV, 50 or vehicle control in a volume of ca. 0.3 ml. The order of treatments was counter balanced with at least 48 hrs between injections. At the start of the experiment, the animal was placed at the end of one of the open arms. Over a five min observation period, animals were scored for the latency to enter the closed arm, time spent in the closed arm and the number of open arm entries following the first occupation of the closed arm. The study produced tables of repeated measures. The data between treatments were compared with a two-way, repeated measures ANOVA followed by Bonferroni post hoc tests.
Chlordiazepoxide (Librium®) is a commonly prescribed anxiolytic that has been thoroughly characterized in preclinical studies. The effective anxiolytic dose in the plus-maze is 10-25 mg/kg (Lister 1987; File and Aranko 1988; Shumsky and Lucki 1994). […] However, it was discovered animals develop a tolerance to the motor depression with repeated daily administration of CDP for several days (Shumsky and Lucki 1994). […] While CLAV has no effect on motor activity it was necessary to treat an equal number of rats with daily injections of CLAV (100 ng/kg) to insure a balanced experimental design. In addition there was a third group of rats (n=6) receiving daily injections of saline vehicle. The study reported in Section II tested CLAV at 1 μg/kg in the plus-maze. […] For this reason CLAV was tested at 100 ng/kg in these studies.

Data set [1] deals with male Syrian golden hamsters. The data set can be described thus: golden hamster seed finding model of anxiety. In kind it is in vivo, Mesocricetus auratus. The source says: Clavulanic acid (CLAV) is structurally similar to the beta-lactam antibiotics. A most robust and simple bioassay for screening beta-lactams for CNS activity is the golden hamster seed finding model of anxiety. Briefly, hamsters are deprived of food overnight. The following day they are exposed to the additional stress of being taken from their home cage and placed in a novel environment for a few minutes. This manipulation stimulates the release of the stress hormone cortisol (FIG. 13). During their absence from the home cage, sunflower seeds are hidden under the bedding in one of the corners. When returned to the home cage, hamsters routinely scramble along the walls for 1-2 min before settling down, locating and eating the seeds. However, animals treated with the benzodiazepine anxiolytic chlordiazepoxide find seeds in less than 10 sec.
Male, Syrian golden hamsters (Mesocricetus auratus) (120-130 g) obtained from Harlan Sprague-Dawley Laboratories (Indianapolis, Ind.) were housed individually in Plexiglas cages (24 cm×24 cm×20 cm), maintained on a reverse light:dark cycle (14L: 10D; lights on at 19:00 hr) and provided food and water ad libitum. A range of concentrations of CLAV (saline vehicle, 0.1, 1.0, 10, 100 1,000 ng/kg) were tested in six groups of hamsters (4-8/group)(FIG. 1). All tests were conducted during the dark phase of the circadian cycle under dim red illumination. Prior to testing all animals were fasted for 20-24 hrs. Ninety min after intraperitoneal (IP) injection of drug, animals were taken from their home cage and placed into a holding cage for 2 min. During their absence, six sunflower seeds were buried under the bedding in one corner of their home cage. Animals were placed back into their home cage randomly facing any one of the empty corners and timed for their latency to find the seeds in a five min observation period. Latency times were analyzed with a one-way ANOVA followed by Scheffe's post hoc tests. Assumption of equal variances was tested (Hartley's F-max=2.1 p>0.05)
It was hypothesized that CLAV functioned as an anxiolytic in the seed finding assay by blocking NAALADase activity in the brain. If this notion were true then it would be predicted that drugs known to block NAALADase should also enhance seed finding. To this end, animals were treated with N-acetyl-beta-aspartyl-glutamic acid (beta-NAAG), a competitive inhibitor of NAALADase (Serval et al., 1992) and tested in the seed finding model of anxiety. The study was similar to that outlined in Section I with one notable exception. […] Beta-NAAG (FW 304) was given in a dose of 3 ng in a volume of 1 μl saline ICV. The average adult hamster brain weights ca. 1.2 g of which 22% is extracellular fluid. The estimated beta-NAAG concentration was 11 ng/ml or 36 nM.
Two groups of six animals each were fasted overnight as previously described and tested the following day. One group was treated with beta-NAAG and the other saline vehicle and one hr later timed for latency to find the hidden sunflower seeds. A Student t-test for unpaired data was used for statistical comparisons.

The next data set deals with rats. The data set can be described thus: Morris water maze, cue navigation. In kind it is in vivo, rat. On the procedure:
On the day following the last day (Day 4) of spatial navigation, animals were tested for cue navigation. In these tests, the platform was raised above water level. One hr before testing animals were treated with CLAV or saline vehicle. The same animals treated with CLAV during spatial navigation were treated with CLAV for cue navigation. Animals were run through a series of two min trials with 45 min between trials. At each trial, the platform was moved to a different quadrant. The cue navigation study was identical to the spatial navigation except the platform was visible and the testing was done over five consecutive trials done on a single day. Animals were scored for latency to find the platform, percent time spent in each quadrant, path distance and swim speed for all testing periods.

For data set [2] the following is noted: in vivo, cited from earlier work.
The mark [3] stands for this setting: 1.0 μg/kg IP, 90 min, vs vehicle.
Where [4] appears, read: daily IP 7 days, CLAV 100 ng/kg, CDP 10 mg/kg, vs vehicle.

Regarding `O=C(O)[C@H]1/C(=C/CO)O[C@@H]2CC(=O)N21` [CLAV, clavulanic acid], in the data set with male Wistar rats (1 μg/kg), the “activity in the plus-maze (summary)” value was “anxiolytic activity”. In addition, in the data set on male Wistar rats (setting [3]), the “latency to enter the dark (closed arm)” value is “stayed in the starting open light position longer”, the open arm entries result was “increased movement into the lighted open arms” and the “time spent in the open arm” value is given as “significantly increased”. In addition, the open arm entries entry with male Wistar rats (daily IP 7 days, CLAV 100 ng/kg, CDP 10 mg/kg) is recorded as “no significant difference between treatments”. In addition, in the data set with male Wistar rats (setting [4]), the “latency to enter the dark closed arms” value was “significantly greater” and the “time spent exposed to light in the open arms” value is listed as “significantly greater”. In addition, the “latency to find the sunflower seeds vs vehicle” value in data set [1] (1 ng/kg IP, 90 min) is “not significantly different from vehicle control”. In data set [1] (1.25 ng in 27.5 ml), the “estimated concentration in extracellular water at the 10 ng/kg dose” value is 0.045 ng/ml and about 200 pM. For the same compound, in data set [1] (IP), the “effective dose (maximal efficacy) in the seed finding test” value amounted to 0.01 µg/kg. Also, the “latency to find the sunflower seeds” value in data set [1] (doses of 10 ng and above, IP, 90 min, vehicle 104 sec) was “less than 8.0 sec”. In addition, the “estimated concentration in the brain at the 10 ng/kg dose” value in data set [1] (from CSF/plasma ratio 0.25) is “around 50 pM”. In addition, the “percentage of time spent in each quadrant vs vehicle” value in the data set on rats (any quadrant on any trial) is “no significant difference between treatments”. In the data set on rats (visible platform, five trials), the “latency to find the platform” value is reported as “no main effect for treatments”. Besides, the “distance traveled to find the platform” value with rats (vs vehicle) is recorded as “not significantly different”. The “oral activity and stability” value in data set [2] (po) is “orally active and stable”. Besides, in data set [2], the CSF/plasma ratio was 0.25, the elimination half-life result is reported as “just under two hours” and the “passage of the blood-brain barrier” value is given as “readily passes the blood-brain barrier”. For the same compound, the CSF/plasma ratio result in data set [2] (listed as Clavulanic acid) was “around 0.25”.

For `CO[C@@]1(NC(=O)C(C(=O)O)c2ccc(O)cc2)C(=O)N2C(C(=O)O)=C(CSc3nnnn3C)CO[C@@H]21` (stereo partly drawn) [Moxalactam, 7-β-[2-carboxy-2-(4-hydroxyphenyl)acetamido]-7α-methoxy-3-[[(1-methyl-1H-tetrazol-5-yl)thio]methyl]-1-oxa-1-dethia-3-cephem-4-carboxylic acid], the anxiolytic action entry in the data set on male Wistar rats (i.p. at 50 micrograms/kg, rats) is given as “acts as an anxiolytic in rats”. The “change of seed finding time” value in data set [1] (dose not given) is listed as “reduction in seed finding time from minutes to seconds”.
